Measurements taken from ChEMBL document CHEMBL5244280, “Evodiamine Lowers Blood Lipids by Up-Regulating the PPARγ/ABCG1 Pathway in High-Fat-Diet-Fed Mice” (J Nat Prod, 2021).
Calls of active or inactive are those of the source. No cut-off for these calls is given here.

Key:
[1] = test system: Mus musculus; experiment: Protection against hyperlipidemia in high fat diet-fed hyperlipidemic ICR mouse model assessed as reduction in serum total cholesterol content at 10 mg/kg, ig administered daily via gavage for 8 weeks by spectrophotometric analysis; type: functional; details: po, 1344 h
[2] = test system: Mus musculus; experiment: Protection against hyperlipidemia in high fat diet-fed hyperlipidemic ICR mouse model assessed as serum HDL-C content at 10 mg/kg, ig administered daily via gavage for 8 weeks by spectrophotometric analysis; type: functional, organism-based
[3] = Toxicity against normal diet-fed ICR mouse assessed as effect on plasma total cholesterol content at 10 mg/kg, ig administered daily via gavage for 8 weeks by spectrophotometric analysis; type: organism-based; details: in vivo, po, 1344 h
[4] = Toxicity against normal diet-fed ICR mouse assessed as effect on plasma LDL-C content at 10 mg/kg, ig administered daily via gavage for 8 weeks by spectrophotometric analysis; type: organism-based; details: in vivo, po, 1344 h
[5] = test system: Mus musculus; experiment: Protection against hyperlipidemia in high fat diet-fed hyperlipidemic ICR mouse model assessed as serum HDL-C content at 20 mg/kg, ig administered daily via gavage for 8 weeks by spectrophotometric analysis; type: functional, organism-based
[6] = test system: Mus musculus; experiment: Protection against hyperlipidemia in high fat diet-fed hyperlipidemic ICR mouse model assessed as reduction in body weight at 10 mg/kg, ig administered daily via gavage for 8 weeks; type: functional; details: po, 1344 h
[7] = Toxicity in normal diet fed ICR mouse assessed as ratio of liver weight to body weight at 10 mg/kg, ig administered daily via gavage for 8 weeks (reference value: 3.74 +/-0.53); type: organism-based; details: in vivo, po, 1344 h
[8] = Toxicity in normal diet fed ICR mouse assessed as ratio of lung weight to body weight at 10 mg/kg, ig administered daily via gavage for 8 weeks (reference value: 0.83 +/-0.32); type: organism-based; details: in vivo, po, 1344 h
[9] = Toxicity in normal diet fed ICR mouse assessed as ratio of spleen weight to body weight at 10 mg/kg, ig administered daily via gavage for 8 weeks (reference value: 0.42 +/-0.08); type: organism-based; details: in vivo, po, 1344 h
[10] = Toxicity in normal diet fed ICR mouse assessed as ratio of stomach weight to body weight at 10 mg/kg, ig administered daily via gavage for 8 weeks (reference value: 1.24 +/-0.41); type: organism-based; details: in vivo, po, 1344 h
[11] = Toxicity in high fat diet fed hyperlipidemic ICR mouse model assessed as ratio of heart weight to body weight at 10 mg/kg, ig administered daily via gavage for 8 weeks (reference value: 0.48 +/-0.03); type: organism-based; details: in vivo, po, 1344 h
[12] = Toxicity in high fat diet fed hyperlipidemic ICR mouse model assessed as ratio of kidney weight to body weight at 10 mg/kg, ig administered daily via gavage for 8 weeks (reference value: 1.34 +/-0.09); type: organism-based; details: in vivo, po, 1344 h
[13] = Toxicity in high fat diet fed hyperlipidemic ICR mouse model assessed as ratio of spleen weight to body weight at 10 mg/kg, ig administered daily via gavage for 8 weeks (reference value: 0.43 +/-0.11); type: organism-based; details: in vivo, po, 1344 h
[14] = test system: Mus musculus; experiment: Protection against hyperlipidemia in high fat diet-fed hyperlipidemic ICR mouse model assessed as normal and less pale colored liver at 10 to 20 mg/kg, ig administered daily via gavage for 8 weeks; type: functional, organism-based; details: dose 10-20 mg/kg
[15] = test system: Mus musculus; experiment: Protection against hyperlipidemia in high fat diet-fed hyperlipidemic ICR mouse model assessed as reduction in hepatic total cholesterol content at 10 mg/kg, ig administered daily via gavage for 8 weeks by colorimetric assay; type: functional; details: po, 1344 h
[16] = Toxicity in normal diet fed ICR mouse assessed as liver morphological changes at 10 mg/kg, ig administered daily via gavage for 8 weeks; type: organism-based; details: in vivo, po, 1344 h
[17] = Toxicity in normal diet fed ICR mouse assessed as hepatic triglyceride content at 10 mg/kg, ig administered daily via gavage for 8 weeks by colorimetric assay; type: organism-based; details: in vivo, po, 1344 h
[18] = Toxicity in normal diet fed ICR mouse assessed as hepatic total cholesterol content at 10 mg/kg, ig administered daily via gavage for 8 weeks by colorimetric assay; type: organism-based; details: in vivo, po, 1344 h
[19] = test system: Mus musculus; experiment: Upregulation of ABCG1 protein expression in liver of high fat diet fed hyperlipidemic ICR mouse model at 10 mg/kg, ig administered daily via gavage for 8 weeks by western blotting analysis; type: functional, organism-based
[20] = test system: Mus musculus; experiment: Upregulation of ABCG8 protein expression in liver of high fat diet fed hyperlipidemic ICR mouse model at 10 mg/kg, ig administered daily via gavage for 8 weeks by western blotting analysis; type: functional, organism-based
[21] = test system: Mus musculus; experiment: Upregulation of ABCA1 mRNA expression in liver of high fat diet fed hyperlipidemic ICR mouse model at 10 mg/kg, ig administered daily via gavage for 8 weeks by qPCR analysis; type: functional, organism-based
[22] = test system: Mus musculus; experiment: Upregulation of ABCG5 mRNA expression in liver of high fat diet fed hyperlipidemic ICR mouse model at 10 mg/kg, ig administered daily via gavage for 8 weeks by qPCR analysis; type: functional, organism-based
[23] = test system: Mus musculus; experiment: Downregulation of ABCG8 mRNA expression in liver of high fat diet fed hyperlipidemic ICR mouse model at 10 mg/kg, ig administered daily via gavage for 8 weeks by qPCR analysis; type: functional, organism-based
[24] = test system: Mus musculus; experiment: Upregulation of PPAR-gamma protein expression in liver of high fat diet fed hyperlipidemic ICR mouse model at 10 to 20 mg/kg, ig administered daily via gavage for 8 weeks by western blotting analysis; type: functional, organism-based; details: dose 10-20 mg/kg
[25] = test system: Mus musculus; experiment: Upregulation of PPAR-gamma mRNA expression in liver of high fat diet fed hyperlipidemic ICR mouse model at 10 to 20 mg/kg, ig administered daily via gavage for 8 weeks by qPCR analysis; type: functional, organism-based; details: dose 10-20 mg/kg
[26] = target: T1, Peroxisome proliferator-activated receptor gamma (Homo sapiens) (UniProt P37231); experiment: Agonist activity at human PPAR-gamma expressed in HEK293 cells co-transfected with luciferase reporter plasmid assessed as receptor transactivation at 10 uM incubated for 18 hrs by luciferase reporter gene assay relative to control; type: cell-based
T1 sequence (whole entry): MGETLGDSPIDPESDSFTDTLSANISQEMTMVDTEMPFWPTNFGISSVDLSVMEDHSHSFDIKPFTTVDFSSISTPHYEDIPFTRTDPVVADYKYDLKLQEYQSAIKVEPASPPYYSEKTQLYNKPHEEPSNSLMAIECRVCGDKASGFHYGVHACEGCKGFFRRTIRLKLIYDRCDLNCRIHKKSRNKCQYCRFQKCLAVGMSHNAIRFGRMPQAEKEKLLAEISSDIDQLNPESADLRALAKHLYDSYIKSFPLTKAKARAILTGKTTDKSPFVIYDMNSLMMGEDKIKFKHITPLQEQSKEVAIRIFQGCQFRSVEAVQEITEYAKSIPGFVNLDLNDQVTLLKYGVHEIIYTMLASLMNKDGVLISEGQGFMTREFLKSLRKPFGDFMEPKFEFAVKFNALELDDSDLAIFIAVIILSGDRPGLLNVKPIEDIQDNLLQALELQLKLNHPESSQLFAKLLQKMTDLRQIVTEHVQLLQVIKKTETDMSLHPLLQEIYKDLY

[27] = test system: Mus musculus; experiment: Protection against hyperlipidemia in high fat diet-fed hyperlipidemic ICR mouse model assessed as reduction in hepatic triglyceride content at 20 mg/kg, ig administered daily via gavage for 8 weeks by colorimetric assay; type: functional, organism-based
[28] = test system: Mus musculus; experiment: Protection against hyperlipidemia in high fat diet-fed hyperlipidemic ICR mouse model assessed as reduction in hepatic total cholesterol content at 20 mg/kg, ig administered daily via gavage for 8 weeks by colorimetric assay; type: functional, organism-based

For CN1c2ccccc2C(=O)N2CCc3c([nH]c4ccccc34)C21 (stereo not drawn), the inhibition in vivo at 10 mg/kg [1] was 50%, the Activity [2] was “inactive” and the Activity [3] was “Non-Toxic”. For the same compound, the Activity [4] was “Non-Toxic”, the Activity [5] was “inactive” and the inhibition in vivo at 10 mg/kg [6] was 68.1%. It also gave a Ratio [7] of 3.64, a Ratio [8] of 0.78 and a Ratio [9] of 0.41. The Ratio [10] was 1.48, the Ratio [11] was 0.48 and the Ratio [12] was 1.29. The Ratio [13] was 0.37, the Activity [14] was “Active” and the inhibition in vivo at 10 mg/kg [15] was 42.3%. The Activity [16] was “Non-Toxic”, the Activity [17] was “Non-Toxic” and the Activity [18] was “Non-Toxic”. For the same compound, the Activity [19] was “Active”, the Activity [20] was “inactive” and the Activity [21] was “inactive”. For the same compound, the Activity [22] was “inactive”, the inhibition [23] was “Active” and the Activity [24] was “Active”. The Activity [25] was “Active”, the fold change (FC) [26] was 0.49 and the Activity [27] was “Active”. For the same compound, the Activity [28] was “Active”.
